Measurements reported in US7799821B2, “Therapeutic compounds” (Allergan, Inc., priority 2004, dated 2010).

Legend:
hEP1 = target: T1, hEP1 (Homo sapiens, UniProt P34995); test: FLIPR calcium signal, hEP1; format: cell-based; details: FLIPR Ca2+ signal, HEK-293(EBNA); read-out: FUNCTIONAL EC50 HEP1
T1 construct: expressed in transfected cells; host or cells: HEK-293(EBNA)
T1 sequence (P34995 1-402): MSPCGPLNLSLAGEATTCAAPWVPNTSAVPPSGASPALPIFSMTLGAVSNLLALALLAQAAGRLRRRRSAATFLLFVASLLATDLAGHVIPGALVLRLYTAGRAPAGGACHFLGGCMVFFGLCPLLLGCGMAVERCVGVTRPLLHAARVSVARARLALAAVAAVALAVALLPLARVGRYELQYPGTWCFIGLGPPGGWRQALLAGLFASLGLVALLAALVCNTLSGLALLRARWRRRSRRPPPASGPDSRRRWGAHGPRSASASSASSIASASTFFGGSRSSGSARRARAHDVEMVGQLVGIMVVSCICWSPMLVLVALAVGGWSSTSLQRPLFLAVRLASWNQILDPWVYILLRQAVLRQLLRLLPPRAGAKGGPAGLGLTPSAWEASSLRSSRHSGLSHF
Description: (§1) HEK-293(EBNA) cells, stably expressing one type or subtype of recombinant human prostaglandin receptors (prostaglandin receptors expressed: hDP/Gqs5; hEP1; hEP2/Gqs5; hEP3A/Gqi5; hEP4/Gqs5; hFP; hIP; hTP), were cultured in 100 mm culture dishes in high-glucose DMEM medium containing 10% fetal bovine serum, 2 mM 1-glutamine, 250 μg/ml geneticin (G418) and 200 μg/ml hygromycin B as selection markers, and 100 units/ml penicillin G, 100 μg/ml streptomycin and 0.25 μg/ml amphotericin B. • (b) Calcium Signal Studies on the FLIPR™
(§2) Cells were seeded at a density of 5×10^4 cells per well in Biocoat® Poly-D-lysine-coated black-wall, clear-bottom 96-well plates (Becton-Dickinson) and allowed to attach overnight in an incubator at 37° C. Cells were then washed two times with HBSS-HEPES buffer (Hanks Balanced Salt Solution without bicarbonate and phenol red, 20 mM HEPES, pH 7.4) using a Denley Cellwash plate washer (Labsystems). After 45 minutes of dye-loading in the dark, using the calcium-sensitive dye Fluo-4 AM at a final concentration of 2 μM, plates were washed four times with HBSS-HEPES buffer to remove excess dye leaving 100 μl in each well. Plates were re-equilibrated to 37° C. for a few minutes.
(§3) Cells were excited with an Argon laser at 488 nm, and emission was measured through a 510-570 nm bandwidth emission filter (FLIPR™, Molecular Devices, Sunnyvale, Calif.). Drug solution was added in a 50 μl volume to each well to give the desired final concentration. The peak increase in fluorescence intensity was recorded for each well. On each plate, four wells each served as negative (HBSS-HEPES buffer) and positive controls (standard agonists: BW245C (hDP); PGE2 (hEP1; hEP2/Gqs5; hEP3A/Gqi5; hEP4/Gqs5); PGF2α (hFP); carbacyclin (hIP); U-46619 (hTP), depending on receptor). The peak fluorescence change in each drug-containing well was then expressed relative to the controls.
(§4) Compounds were tested in a high-throughput (HTS) or concentration-response (CoRe) format. In the HTS format, forty-four compounds per plate were examined in duplicates at a concentration of 10^−5 M. To generate concentration-response curves, four compounds per plate were tested in duplicates in a concentration range between 10^−5 and 10^−11 M. The duplicate values were averaged. In either, HTS or CoRe format each compound was tested on at least 3 separate plates using cells from different passages to give an n≧3.

hEP2/Gqs5 = target: T2, hEP2/Gqs5 (Homo sapiens, UniProt P43116); test: FLIPR calcium signal, hEP2; format: cell-based; details: FLIPR Ca2+ signal, HEK-293(EBNA); read-out: FUNCTIONAL EC50 HEP2
T2 construct: expressed in transfected cells; host or cells: HEK-293(EBNA)
How it was run: (§5)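 HEK-293(EBNA) cells stably expressing the recombinant human receptor were loaded with 2 μM Fluo-4 AM for 45 min and read on FLIPR at 37° C in HBSS-HEPES pH 7.4. Peak fluorescence rise was expressed relative to buffer and standard agonist controls (BW245C, PGE2 or U-46619 by receptor); compounds were run 10^−5 to 10^−11 M in duplicate, n≧3.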

hEP3A/Gqi5 = target: T3, hEP3A/Gqi5 (Homo sapiens, UniProt P43115); test: FLIPR calcium signal, hEP3A; format: cell-based; details: FLIPR Ca2+ signal, HEK-293(EBNA); read-out: FUNCTIONAL EC50 HEP3A
T3 construct: expressed in transfected cells; host or cells: HEK-293(EBNA)
T3 sequence (P43115 1-390): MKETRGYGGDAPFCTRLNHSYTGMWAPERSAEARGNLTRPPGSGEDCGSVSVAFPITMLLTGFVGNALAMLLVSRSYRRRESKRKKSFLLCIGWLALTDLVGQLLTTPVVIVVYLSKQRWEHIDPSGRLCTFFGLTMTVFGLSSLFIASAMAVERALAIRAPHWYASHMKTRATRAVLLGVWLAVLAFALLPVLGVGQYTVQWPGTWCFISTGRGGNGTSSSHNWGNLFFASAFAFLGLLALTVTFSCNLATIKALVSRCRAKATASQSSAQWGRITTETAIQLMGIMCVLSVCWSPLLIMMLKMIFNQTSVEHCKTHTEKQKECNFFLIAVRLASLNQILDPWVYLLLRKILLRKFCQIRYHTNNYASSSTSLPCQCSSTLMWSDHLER
Description: as §1, §2, §3, §4

hEP4/Gqs5 = target: T4, hEP4/Gqs5 (Homo sapiens, UniProt P35408); test: FLIPR calcium signal, hEP4; format: cell-based; details: FLIPR Ca2+ signal, HEK-293(EBNA); read-out: FUNCTIONAL EC50 HEP4
T4 construct: expressed in transfected cells; host or cells: HEK-293(EBNA)
How it was run: as §5

hTP = target: T5, hTP (Homo sapiens, UniProt P21731); test: FLIPR calcium signal, hTP; format: cell-based; details: FLIPR Ca2+ signal, HEK-293(EBNA); read-out: FUNCTIONAL EC50 HTP
T5 construct: expressed in transfected cells; host or cells: HEK-293(EBNA)
T5 sequence (P21731 1-343): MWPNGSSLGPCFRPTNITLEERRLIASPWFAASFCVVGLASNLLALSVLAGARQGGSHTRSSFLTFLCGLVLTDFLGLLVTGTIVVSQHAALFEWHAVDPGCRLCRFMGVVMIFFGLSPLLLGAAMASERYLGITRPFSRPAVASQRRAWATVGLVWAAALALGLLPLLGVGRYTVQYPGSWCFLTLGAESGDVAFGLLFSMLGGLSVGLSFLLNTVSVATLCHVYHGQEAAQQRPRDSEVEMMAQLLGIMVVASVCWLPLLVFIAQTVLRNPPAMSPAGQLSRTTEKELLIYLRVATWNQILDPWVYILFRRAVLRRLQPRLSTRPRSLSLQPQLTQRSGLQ
Description: as §1, §2, §3, §4

hDP/Gqs5 = target: T6, hDP/Gqs5 (Homo sapiens, UniProt Q13258); test: FLIPR calcium signal, hDP; format: cell-based; details: FLIPR Ca2+ signal, HEK-293(EBNA); read-out: FUNCTIONAL EC50 HDP
T6 construct: expressed in transfected cells; host or cells: HEK-293(EBNA)
T6 sequence (Q13258 1-359): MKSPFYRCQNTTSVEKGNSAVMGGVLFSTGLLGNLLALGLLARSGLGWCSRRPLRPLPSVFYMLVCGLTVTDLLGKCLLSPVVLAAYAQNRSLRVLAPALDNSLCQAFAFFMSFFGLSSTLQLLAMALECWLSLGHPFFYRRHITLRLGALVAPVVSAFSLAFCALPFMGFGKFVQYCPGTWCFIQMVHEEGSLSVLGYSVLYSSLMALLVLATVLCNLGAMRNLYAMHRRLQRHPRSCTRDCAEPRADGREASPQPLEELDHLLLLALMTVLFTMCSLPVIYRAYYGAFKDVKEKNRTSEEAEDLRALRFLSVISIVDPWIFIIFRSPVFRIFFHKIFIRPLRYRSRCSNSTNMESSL
Description: as §1, §2, §3, §4

EP4 receptors = target: T7, EP4 receptors (Homo sapiens, UniProt P35408); test: Radioligand binding ([3H]PGE2), EP4; details: read-out: BINDING IC50 HEP4
T7 construct: expressed in transfected cells; host or cells: HEK-293
Description: HEK-293 cells stably expressing the human or feline FP receptor, or EP1, EP2, or EP4 receptors were washed with TME buffer, scraped from the bottom of the flasks, and homogenized for 30 sec using a Brinkman PT 10/35 polytron. TME buffer was added to achieve a final 40 ml volume in the centrifuge tubes (the composition of TME is 100 mM TRIS base, 20 mM MgCl2, […]; 10N HCl is added to achieve a pH of 7.4).
The cell homogenate was centrifuged at 19000 r.p.m. for 20 min at 4° C. using a Beckman Ti-60 rotor. The resultant pellet was resuspended in TME buffer to give a final 1 mg/ml protein concentration, as determined by Biorad assay. Radioligand binding competition assays vs. [^3H-]17 —phenyl PGF2α (5 nM) were performed in a 100 μl volume for 60 min. Binding reactions were started by adding plasma membrane fraction. The reaction was terminated by the addition of 4 ml ice-cold TRIS-HCl buffer and rapid filtration through glass fiber GF/B filters using a Brandel cell harvester. The filters were washed 3 times with ice-cold buffer and oven dried for one hour.
[^3H-] PGE2 (specific activity 180 Ci mmol) was used as the radioligand for EP receptors. [^3H] 17-phenyl PGF2α was employed for FP receptor binding studies. Binding studies employing EP1, EP2, EP4 and FP receptors were performed in duplicate in at least three separate experiments. A 200 μl assay volume was used. Incubations were for 60 min at 25° C. and were terminated by the addition of 4 ml of ice-cold 50 mM TRIS-HCl, followed by rapid filtration through Whatman GF/B filters and three additional 4 ml washes in a cell harvester (Brandel). Competition studies were performed using a final concentration of 5 nM [^3H]—PGE2, or 5 nM [^3H] 17-phenyl PGF2α and non-specific binding determined with 10^−5M of unlabeled PGE2, or 17-phenyl PGF2α, according to receptor subtype studied.

hIP = target: T8, hIP (Homo sapiens, UniProt P43119); test: FLIPR calcium signal, hIP; format: cell-based; details: FLIPR Ca2+ signal, HEK-293(EBNA); read-out: FUNCTIONAL EC50 HIP
T8 construct: expressed in transfected cells; host or cells: HEK-293(EBNA)
Description: as §1, §2, §3, §4

T4 sequence (P35408 whole entry): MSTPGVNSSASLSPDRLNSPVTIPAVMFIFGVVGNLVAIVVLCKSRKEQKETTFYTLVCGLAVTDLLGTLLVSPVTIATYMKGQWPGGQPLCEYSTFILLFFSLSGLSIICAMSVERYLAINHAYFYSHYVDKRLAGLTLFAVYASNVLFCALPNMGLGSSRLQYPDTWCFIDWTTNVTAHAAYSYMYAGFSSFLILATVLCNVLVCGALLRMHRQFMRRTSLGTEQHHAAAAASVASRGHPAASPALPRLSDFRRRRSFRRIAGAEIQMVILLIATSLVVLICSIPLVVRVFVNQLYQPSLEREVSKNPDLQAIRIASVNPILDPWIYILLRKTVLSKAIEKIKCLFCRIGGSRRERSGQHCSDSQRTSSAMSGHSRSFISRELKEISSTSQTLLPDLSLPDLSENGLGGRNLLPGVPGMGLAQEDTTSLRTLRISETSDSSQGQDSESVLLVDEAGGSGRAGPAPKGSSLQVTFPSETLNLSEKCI
T2 sequence (P43116 whole entry): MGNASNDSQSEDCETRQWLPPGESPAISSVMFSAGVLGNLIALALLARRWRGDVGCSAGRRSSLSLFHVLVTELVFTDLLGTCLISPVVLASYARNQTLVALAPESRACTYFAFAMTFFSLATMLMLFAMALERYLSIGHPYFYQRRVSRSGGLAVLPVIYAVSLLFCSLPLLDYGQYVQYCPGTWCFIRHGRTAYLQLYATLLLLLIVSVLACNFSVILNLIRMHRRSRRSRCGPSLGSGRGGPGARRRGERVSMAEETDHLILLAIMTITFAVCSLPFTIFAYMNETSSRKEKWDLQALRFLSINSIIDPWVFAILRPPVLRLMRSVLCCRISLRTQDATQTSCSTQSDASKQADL
T7 sequence (P35408 whole entry): as the sequence (P35408 whole entry) above
T8 sequence (P43119 whole entry): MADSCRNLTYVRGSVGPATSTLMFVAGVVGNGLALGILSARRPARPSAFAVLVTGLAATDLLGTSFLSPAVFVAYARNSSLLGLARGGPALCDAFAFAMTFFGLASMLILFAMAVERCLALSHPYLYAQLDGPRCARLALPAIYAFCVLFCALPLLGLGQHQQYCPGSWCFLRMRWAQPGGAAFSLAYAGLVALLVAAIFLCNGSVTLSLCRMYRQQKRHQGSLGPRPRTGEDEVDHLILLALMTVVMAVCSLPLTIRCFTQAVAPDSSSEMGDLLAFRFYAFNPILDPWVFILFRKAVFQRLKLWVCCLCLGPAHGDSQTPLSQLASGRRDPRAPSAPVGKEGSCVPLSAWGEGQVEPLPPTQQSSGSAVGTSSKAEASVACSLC

Compound | EC50 (hEP1) [µM] | EC50 (hEP2/Gqs5) [µM] | EC50 (hEP3A/Gqi5) [µM] | EC50 (hEP4/Gqs5) [µM] | EC50 (hTP) [nM] | EC50 (hDP/Gqs5) [µM] | IC50 (EP4 receptors) [µM] | EC50 (hIP) [µM]
COC(=O)CCCCCC[C@@H]1[C@@H](c2ccc3c(c2)CCC3)[C@H](O)C[C@H]1Cl |  |  |  |  | 506 |  | 13.1 | 
Cc1ccc([C@H]2[C@H](O)CC(=O)[C@@H]2CCCCCCC(=O)O)cc1 | 1.87 | 3.13 |  |  | 94 |  |  | 
O=C(O)CCCCCC[C@H]1C(=O)C[C@@H](O)[C@@H]1c1ccc(C2(O)CCC2)cc1 |  | > 10 |  |  |  |  |  | > 10
COC(=O)CCCCCC[C@H]1C(=O)C[C@@H](O)[C@@H]1c1ccc2c(c1)CCC2 |  | > 10 | > 10 | > 10 | > 10000 |  |  | 
COC(=O)CCCCCC[C@@H]1[C@@H](c2ccc3c(c2)CCC3O)[C@H](O)C[C@H]1Cl (stereo partly drawn) |  |  |  | 22.5 | 17500 |  |  | 

Results, then the compound that gave them:

EC50 (hEP1) [µM] | EC50 (hEP2/Gqs5) [µM] | EC50 (hEP3A/Gqi5) [µM] | EC50 (hEP4/Gqs5) [µM] | EC50 (hTP) [nM] | EC50 (hDP/Gqs5) [µM] | IC50 (EP4 receptors) [µM] | EC50 (hIP) [µM] | Compound
> 10 | 0.118 | 2.05 | > 10 | 1270 | > 10 |  |  | CC(C)(C)c1ccc([C@@H]2[C@@H](C/C=C\CCCC(=O)O)[C@H](Cl)C[C@H]2O)cc1
 | > 10 | > 10 |  | > 10000 |  |  |  | CCCC1(C(O)c2cccc([C@@H]3[C@@H](C/C=C\CCCC(=O)OC)[C@H](Cl)C[C@H]3O)c2)CCC1 (stereo partly drawn)
> 10 | 1.71 |  |  |  |  |  |  | CC(C)(C)c1ccc([C@H]2[C@H](O)CC(=O)[C@@H]2C/C=C\CCCC(=O)O)cc1
